Earlier results in US11707436B2, “Methods of treating inflammatory disorders and global inflammation with compositions comprising phospholipid nanoparticle encapsulations of NSAIDS” (NanoSphere Health Sciences, LLC, priority 2014, dated 2023).
Converted amounts (≈) assume the structure as drawn. Values belong to the molecule of their own block, whether it stands above or below them.

Tests used:
[1] = for Solubility of NSAIDs at 25 C: source drugbank.ca
[2] = system: NF-KappaB; settings: for inhibition of NF-kappaB activity: concentrations comparable to those used in therapy; for inhibition of activation of the NF-KappaB pathway: concentrations measured in serum of treated patients
[3] = system: NF-KappaB; settings: highly variable efficacy
[4] = system: NF-Kappa B
[5] = clinical studies
[6] = after removal of lower third molars
[7] = renal colic

Solubility of NSAIDs at 25 C [1]: 3.3 mg/mL
SMILES: CC(=O)Oc1ccccc1C(=O)O [Acetylsalicylic acid]
inhibition of NF-kappaB activity [2]: effectively inhibit | inhibition of activation of the NF-KappaB pathway [2]: inhibit activation | inhibition of TNF-induced NF-KappaB activation [3]: inhibited

SMILES: C=C(C)[C@@H]1CCC(C)=C[C@H]1c1c(O)cc(CCCCC)cc1O [Cannabidiol]
solubility in water ([1]; words only): insolubility in water | NF-Kappa B activation, pro-inflammatory cytokines and mediators (TNF-alpha, iNOS) [4]: attenuate

Solubility of NSAIDs at 25 C [1]: 50 mg/mL
SMILES: O=C(O)Cc1ccccc1Nc1c(Cl)cccc1Cl [Diclofenac]

Solubility of NSAIDs at 25 C [1]: 21 mg/mL | solubility water at 25° C [1]: 21 mg/mL (≈ 102 mM)
SMILES: CC(C)Cc1ccc(C(C)C(=O)O)cc1 (centres unmarked) [Ibuprofen]
inhibition of NF-kappaB activity [2]: effectively inhibit | inhibition of TNF-induced NF-KappaB activation [3]: inhibited

concentrations in CSF [5]: minimal concentrations | Solubility of NSAIDs at 25 C [1]: .937 mg/mL
SMILES: COc1ccc2c(c1)c(CC(=O)O)c(C)n2C(=O)c1ccc(Cl)cc1 [Indomethacin]

concentrations in CSF [5]: minimal concentrations
SMILES: CC(C(=O)O)c1cccc(C(=O)c2ccccc2)c1 (centres unmarked) [Ketoprofen]

SMILES: COc1ccc2cc([C@H](C)C(=O)O)ccc2c1 [Naproxen]
inhibition of NF-kappaB activity [2]: effectively inhibit | inhibition of TNF-induced NF-KappaB activation [3]: inhibited

SMILES: O=C(O)c1ccccc1O [Salicylic acid]
Solubility of NSAIDs at 25 C [1]: 3 mg/mL | solubility water at 25° C [1]: 3 mg/mL (≈ 21.7 mM)

SMILES: COc1cc(/C=C/C(=O)CC(=O)/C=C/c2ccc(O)c(OC)c2)ccc1O [curcumin]
inhibition of TNF-induced NF-KappaB activation [3]: inhibited

concentrations in CSF [5]: minimal concentrations
SMILES: CC(C(=O)O)c1ccc(N2CC=CC2)c(Cl)c1 (centres unmarked) [piroprofen]

SMILES: CN1C(C(=O)Nc2ccccn2)=C(O)c2ccccc2S1(=O)=O [piroxicam]
pain scores, oral versus sublingual route [6]: no significant differences | efficacy of sublingual versus IM injection [7]: as effective as the IM injection

SMILES: Oc1ccc(C=Cc2cc(O)cc(O)c2)cc1 [resveratrol]
inhibition of TNF-induced NF-KappaB activation [3]: inhibited

SMILES: O=C([O-])c1ccccc1O.[Na+] [salicylate, sodium salicylate]
inhibition of activation of the NF-KappaB pathway [2]: inhibit activation

SMILES: CC1=C(CC(=O)O)c2cc(F)ccc2/C1=C\c1ccc([S+](C)[O-])cc1 (centres unmarked) [sulindac]
inhibition of TNF-induced NF-KappaB activation [3]: inhibited

SMILES: CC/C(=C(\c1ccccc1)c1ccc(OCCN(C)C)cc1)c1ccccc1 [tamoxifen]
inhibition of TNF-induced NF-KappaB activation [3]: inhibited
